Values of other authors, collected in patent US12527979B2, “Treatment of HER3-mutated cancer by administration of anti-HER3 antibody-drug conjugate” (DAIICHI SANKYO COMPANY, LIMITED, priority 2018, dated 2026).
Read-outs that look alike come from different tables or passages of the source.

Experiments:
topoisomerase I = target: T1, topoisomerase I (Homo sapiens, UniProt P11387)
T1 sequence (P11387 1-765): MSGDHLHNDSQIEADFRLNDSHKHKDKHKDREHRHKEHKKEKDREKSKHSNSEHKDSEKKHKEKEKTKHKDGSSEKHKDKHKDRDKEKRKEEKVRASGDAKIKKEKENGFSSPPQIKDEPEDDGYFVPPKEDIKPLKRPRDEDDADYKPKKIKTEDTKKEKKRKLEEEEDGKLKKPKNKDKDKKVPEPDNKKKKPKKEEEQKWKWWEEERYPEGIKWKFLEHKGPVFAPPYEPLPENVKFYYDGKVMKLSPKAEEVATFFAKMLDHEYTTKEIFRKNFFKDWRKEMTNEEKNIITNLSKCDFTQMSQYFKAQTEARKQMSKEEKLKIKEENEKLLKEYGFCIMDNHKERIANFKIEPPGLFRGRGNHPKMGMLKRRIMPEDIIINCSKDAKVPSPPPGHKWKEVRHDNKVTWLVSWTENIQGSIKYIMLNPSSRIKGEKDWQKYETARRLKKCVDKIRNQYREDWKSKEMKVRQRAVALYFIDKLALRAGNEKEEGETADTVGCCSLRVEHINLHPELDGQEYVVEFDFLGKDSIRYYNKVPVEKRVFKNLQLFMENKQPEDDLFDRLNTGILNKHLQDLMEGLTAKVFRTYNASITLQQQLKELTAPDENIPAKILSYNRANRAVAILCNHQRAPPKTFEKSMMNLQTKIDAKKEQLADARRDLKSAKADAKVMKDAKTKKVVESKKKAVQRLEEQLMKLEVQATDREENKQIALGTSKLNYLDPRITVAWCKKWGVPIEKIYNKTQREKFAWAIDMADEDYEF

HER3-mutated cancers [1] = details: in vitro and in vivo, in situations where HER2 is overexpressed
HER3-mutated cancers [2] = details: clinical studies

In the case of `CC[C@@]1(O)C(=O)OCc2c1cc1n(c2=O)Cc2c-1nc1cc(F)c(C)c3c1c2[C@@H](NC(=O)CO)CC3`, the “topoisomerase I inhibitory effect” value (topoisomerase I) is listed as “confirmed to have a topoisomerase I inhibitory effect”.

For `CS(=O)(=O)CCNCc1ccc(-c2ccc3ncnc(Nc4ccc(OCc5cccc(F)c5)c(Cl)c4)c3c2)o1` [lapatinib], the “effectiveness against HER3-mutated cancers” value (HER3-mutated cancers [1]) is listed as “exhibited effectiveness”.

In the case of `CCOc1cc2ncc(C#N)c(Nc3ccc(OCc4ccccn4)c(Cl)c3)c2cc1NC(=O)/C=C/CN(C)C` [neratinib], the “effectiveness against HER3-mutated cancers” value (HER3-mutated cancers [2]) is given as “no effectiveness”.
